Key:
[1] = bacteroides fragilis, 12 h, 2 µM
Description: The drug is tested on Bacteroides fragilis strain: NCTC 9343 for biotransformation. The drug concentrations were measured before and after a 12-h incubation by liquid-chromatography-coupled mass spectrometry (LC–MS)

[2] = The drug is tested on Enterococcus faecalis strain: V583 for biotransformation. The drug concentrations were measured before and after a 12-h incubation by liquid-chromatography-coupled mass spectrometry (LC–MS); conditions: 2 µM
[3] = The drug is tested on Edwardsiella tarda strain: ATCC23685 for biotransformation. The drug concentrations were measured before and after a 12-h incubation by liquid-chromatography-coupled mass spectrometry (LC–MS); conditions: 2 µM
[4] = The drug is tested on Bacteroides sp. WH2 strain: WH2 for biotransformation. The drug concentrations were measured before and after a 12-h incubation by liquid-chromatography-coupled mass spectrometry (LC–MS); conditions: bacteroides sp. wh2, 12 h, 2 µM
[5] = bacteroides eggerthii, 12 h, 2 µM
Description: The drug is tested on Bacteroides eggerthii strain: DSM20697 for biotransformation. The drug concentrations were measured before and after a 12-h incubation by liquid-chromatography-coupled mass spectrometry (LC–MS)

[6] = parabacteroides distasonis, 12 h, 2 µM
Description: The drug is tested on Parabacteroides distasonis strain: ATCC8503 for biotransformation. The drug concentrations were measured before and after a 12-h incubation by liquid-chromatography-coupled mass spectrometry (LC–MS)

[7] = The drug is tested on Clostridium asparagiforme strain: DSM15981 for biotransformation. The drug concentrations were measured before and after a 12-h incubation by liquid-chromatography-coupled mass spectrometry (LC–MS); assay type: ADME; parameters: dose 2 uM, timepoint 0 vs 12 hours; conditions: enterocloster asparagiformis, 2 µM
[8] = The drug is tested on Clostridium symbiosum strain: ATCC14940 for biotransformation. The drug concentrations were measured before and after a 12-h incubation by liquid-chromatography-coupled mass spectrometry (LC–MS); conditions: 2 µM
[9] = The drug is tested on Bacteroides fragilis strain: HMW615 for biotransformation. The drug concentrations were measured before and after a 12-h incubation by liquid-chromatography-coupled mass spectrometry (LC–MS); conditions: 2 µM
[10] = The drug is tested on Bifidobacterium breve strain: DSM20213 for biotransformation. The drug concentrations were measured before and after a 12-h incubation by liquid-chromatography-coupled mass spectrometry (LC–MS); conditions: 2 µM
[11] = The drug is tested on Anaerococcus hydrogenalis strain: DSM7454 for biotransformation. The drug concentrations were measured before and after a 12-h incubation by liquid-chromatography-coupled mass spectrometry (LC–MS); conditions: 2 µM
[12] = The drug is tested on Escherichia coli strain: BW25113 for biotransformation. The drug concentrations were measured before and after a 12-h incubation by liquid-chromatography-coupled mass spectrometry (LC–MS); conditions: 2 µM
[13] = The drug is tested on Odoribacter splanchnicus strain: fecal isolate for biotransformation. The drug concentrations were measured before and after a 12-h incubation by liquid-chromatography-coupled mass spectrometry (LC–MS); conditions: 2 µM
[14] = The drug is tested on Bacteroides uniformis strain: ATCC8492 for biotransformation. The drug concentrations were measured before and after a 12-h incubation by liquid-chromatography-coupled mass spectrometry (LC–MS); conditions: 2 µM
[15] = The drug is tested on Enterobacter cancerogenus strain: ATCC35316 for biotransformation. The drug concentrations were measured before and after a 12-h incubation by liquid-chromatography-coupled mass spectrometry (LC–MS); conditions: 2 µM
[16] = limosilactobacillus reuteri cf48-3a, 12 h, 2 µM
Description: The drug is tested on Lactobacillus reuteri CF48-3A strain: BEI HM-102 for biotransformation. The drug concentrations were measured before and after a 12-h incubation by liquid-chromatography-coupled mass spectrometry (LC–MS)

[17] = The drug is tested on Eubacterium hallii strain: DSM3353 for biotransformation. The drug concentrations were measured before and after a 12-h incubation by liquid-chromatography-coupled mass spectrometry (LC–MS); conditions: anaerobutyricum hallii, 2 µM
[18] = The drug is tested on Bacteroides coprophilus strain: DSM18228 for biotransformation. The drug concentrations were measured before and after a 12-h incubation by liquid-chromatography-coupled mass spectrometry (LC–MS); conditions: 2 µM
[19] = The drug is tested on Eubacterium rectale strain: ATCC33656 for biotransformation. The drug concentrations were measured before and after a 12-h incubation by liquid-chromatography-coupled mass spectrometry (LC–MS); conditions: agathobacter rectalis, 2 µM
[20] = The drug is tested on Bacteroides dorei strain: DSM17855 for biotransformation. The drug concentrations were measured before and after a 12-h incubation by liquid-chromatography-coupled mass spectrometry (LC–MS); conditions: phocaeicola dorei, 2 µM

Row | Compound | Bacterial Biotransformation [1] | Bacterial Biotransformation [2] | Bacterial Biotransformation [3] | Bacterial Biotransformation [4] | Bacterial Biotransformation [5] | Bacterial Biotransformation [6] | Bacterial Biotransformation [7] | Bacterial Biotransformation [8] | Bacterial Biotransformation [9] | Bacterial Biotransformation [10] | Bacterial Biotransformation [11] | Bacterial Biotransformation [12] | Bacterial Biotransformation [13] | Bacterial Biotransformation [14] | Bacterial Biotransformation [15] | Bacterial Biotransformation [16] | Bacterial Biotransformation [17] | Bacterial Biotransformation [18] | Bacterial Biotransformation [19] | Bacterial Biotransformation [20]
1 | CC(C)NCC(O)c1ccc(NS(C)(=O)=O)cc1 (stereo not given) [SOTALOL] | Compound NOT metabolized | Compound NOT metabolized | Compound NOT metabolized | Compound NOT metabolized | Compound NOT metabolized | Compound NOT metabolized | Compound NOT metabolized | Compound NOT metabolized | Compound metabolized | Compound NOT metabolized | Compound NOT metabolized | Compound NOT metabolized | Compound NOT metabolized | Compound metabolized | Compound NOT metabolized | Compound NOT metabolized | Compound NOT metabolized | – | – | –
2 | CS(=O)(=O)O.O.O.O.O=C1Cc2cc(CCN3CCN(c4nsc5ccccc45)CC3)c(Cl)cc2N1 [ZIPRASIDONE MESYLATE] | Compound NOT metabolized | Compound NOT metabolized | Compound NOT metabolized | – | Compound NOT metabolized | Compound metabolized | Compound NOT metabolized | Compound NOT metabolized | Compound NOT metabolized | Compound NOT metabolized | Compound NOT metabolized | Compound metabolized | – | Compound NOT metabolized | Compound NOT metabolized | Compound NOT metabolized | – | Compound NOT metabolized | Compound NOT metabolized | Compound NOT metabolized
3 | CCc1cccc2c3c([nH]c12)C(CC)(CC(=O)O)OCC3 (stereo not given) [ETODOLAC] | – | Compound NOT metabolized | Compound NOT metabolized | Compound NOT metabolized | Compound NOT metabolized | Compound NOT metabolized | Compound NOT metabolized | Compound NOT metabolized | Compound metabolized | – | Compound NOT metabolized | Compound NOT metabolized | Compound metabolized | Compound metabolized | Compound NOT metabolized | Compound NOT metabolized | Compound NOT metabolized | Compound NOT metabolized | – | –
4 | CCOc1ccccc1OCCN[C@H](C)Cc1ccc(OC)c(S(N)(=O)=O)c1.Cl [TAMSULOSIN HYDROCHLORIDE] | Compound NOT metabolized | Compound NOT metabolized | Compound NOT metabolized | Compound NOT metabolized | Compound NOT metabolized | Compound NOT metabolized | Compound NOT metabolized | Compound NOT metabolized | Compound NOT metabolized | Compound NOT metabolized | Compound NOT metabolized | Compound NOT metabolized | Compound NOT metabolized | Compound NOT metabolized | Compound NOT metabolized | Compound NOT metabolized | Compound NOT metabolized | Compound NOT metabolized | – | Compound NOT metabolized
5 | OC(c1cc(C(F)(F)F)nc2c(C(F)(F)F)cccc12)C1CCCCN1 (stereo not given) [MEFLOQUINE] | Compound NOT metabolized | Compound NOT metabolized | – | Compound NOT metabolized | Compound NOT metabolized | Compound NOT metabolized | Compound NOT metabolized | Compound NOT metabolized | Compound NOT metabolized | – | – | Compound metabolized | – | Compound NOT metabolized | Compound NOT metabolized | Compound NOT metabolized | Compound NOT metabolized | Compound NOT metabolized | Compound NOT metabolized | Compound NOT metabolized
6 | CC(C)c1nc(N(C)S(C)(=O)=O)nc(-c2ccc(F)cc2)c1/C=C/[C@@H](O)C[C@@H](O)CC(=O)[O-].CC(C)c1nc(N(C)S(C)(=O)=O)nc(-c2ccc(F)cc2)c1/C=C/[C@@H](O)C[C@@H](O)CC(=O)[O-].[Ca+2] [ROSUVASTATIN CALCIUM] | Compound NOT metabolized | Compound NOT metabolized | Compound NOT metabolized | Compound NOT metabolized | Compound NOT metabolized | Compound NOT metabolized | Compound NOT metabolized | Compound NOT metabolized | Compound NOT metabolized | Compound NOT metabolized | Compound NOT metabolized | Compound NOT metabolized | – | Compound NOT metabolized | Compound NOT metabolized | Compound NOT metabolized | Compound NOT metabolized | Compound NOT metabolized | Compound NOT metabolized | Compound NOT metabolized
7 | N=C(N)NC(=O)Cc1c(Cl)cccc1Cl [GUANFACINE] | Compound NOT metabolized | Compound NOT metabolized | Compound NOT metabolized | Compound NOT metabolized | Compound NOT metabolized | Compound NOT metabolized | Compound NOT metabolized | Compound NOT metabolized | Compound NOT metabolized | – | Compound NOT metabolized | Compound NOT metabolized | Compound NOT metabolized | Compound NOT metabolized | Compound NOT metabolized | – | Compound NOT metabolized | – | – | Compound NOT metabolized

Source: ChEMBL document CHEMBL5303573, “Mapping human microbiome drug metabolism by gut bacteria and their genes” (Nature, 2019)
